{"source": "ChEMBL document CHEMBL5370539", "about": "“Oxazole-4-carboxamide/butylated hydroxytoluene hybrids with GSK-3β inhibitory and neuroprotective activities against Alzheimer's disease” (Eur J Med Chem, 2023)", "key": {"PC12 [1]": {"system": "PC12", "assay": "Activation of Nrf2-ARE pathway in rat PC-12 cells assessed as increase in Nrf2 expression level in cytoplasm at 10 uM incubated for 3 hrs by Western blot analysis", "assay_type": "cell-based", "details": "filed as activator"}, "Mus musculus [2]": {"system": "Mus musculus", "assay": "Antialzheimer activity in okadaic acid-induced cognitive impairment ICR mouse model assessed as path tracing at 0.08 to 0.24 mg/kg, iv twice at 3days interval before and after okadaic acid stimulation measured upto 14 days by Morris water maze test relative to control", "assay_type": "functional, organism-based", "details": "dose 0.08-0.24 mg/kg, time <= 14.0 day"}, "L02": {"system": "L02", "assay": "Cytotoxicity against human L02 cells assessed as cell viability at 6.25 to 100 uM incubated for 24 hrs by MTT assay", "assay_type": "toxicity, cell-based", "details": "l02, 24 h, dose 6.25-100 µM"}, "PC-12 [3]": {"system": "PC-12", "assay": "Neuroprotective activity against rat PC12 cells assessed as decrease in H2O2-induced mitochondrial membrane potential level at 10 uM preincubated for 12 hrs followed by replacement with fresh media and H2O2 stimulation for 12 hrs by JC-1 dye based flow cytometry (Rvb=95.3%)", "assay_type": "functional", "set-up": "scale not given: the % may be the effect or the level left"}, "PC-12 [4]": {"system": "PC-12", "assay": "Anti-apoptotic activity against H2O2-induced apoptosis in rat PC12 cells assessed as late apoptotic cells at 2.5 uM preincubated for 12 hrs followed by replacement with fresh media and H2O2 stimulation for 12 hrs by Annexin-V/7-AAD staining based flow cytometry (Rvb=2.2 %)", "assay_type": "functional"}, "PC-12 [5]": {"system": "PC-12", "assay": "Anti-apoptotic activity against H2O2-induced apoptosis in rat PC12 cells assessed as living cells at 2.5 uM preincubated for 12 hrs followed by replacement with fresh media and H2O2 stimulation for 12 hrs by Annexin-V/7-AAD staining based flow cytometry (Rvb=92.9%)", "assay_type": "functional"}, "PC12 [6]": {"system": "PC12", "assay": "Activation of Nrf2-ARE pathway in rat PC-12 cells assessed as increase in GCLM expression level at 2.5 to 10 uM incubated for 24 hrs by Western blot analysis", "assay_type": "cell-based", "details": "filed as activator, dose 2.5-10 µM"}, "PC-12 [7]": {"system": "PC-12", "assay": "Anti-apoptotic activity against H2O2-induced apoptosis in rat PC12 cells assessed as early apoptotic cells at 2.5 uM preincubated for 12 hrs followed by replacement with fresh media and H2O2 stimulation for 12 hrs by Annexin-V/7-AAD staining based flow cytometry (Rvb=0.8%)", "assay_type": "functional"}, "[8]": {"assay": "Toxicity in okadaic acid-induced cognitive impairment ICR mouse model assessed as swimming speed change at 0.08 to 0.24 mg/kg, iv twice at 3days interval before and after okadaic acid stimulation measured for 5 days by Morris water maze test", "assay_type": "organism-based", "details": "in vivo, 120 h, dose 0.08-0.24 mg/kg, time 5 day"}, "PC-12 [9]": {"system": "PC-12", "assay": "Anti-apoptotic activity against H2O2-induced apoptosis in rat PC12 cells assessed as living cells at 5 uM preincubated for 12 hrs followed by replacement with fresh media and H2O2 stimulation for 12 hrs by Annexin-V/7-AAD staining based flow cytometry (Rvb=92.9%)", "assay_type": "functional"}, "PC-12 [10]": {"system": "PC-12", "assay": "Neuroprotective activity against H2O2-induced cytotoxicity in rat PC12 cells assessed as increase in cell viability at 10 uM pretreated with Brusatol for 1hrs and preincubated for 12 hrs followed by replacement with fresh media and H2O2 stimulation for 12 hrs by MTT assay", "assay_type": "functional, cell-based"}, "PC-12 [11]": {"system": "PC-12", "assay": "Neuroprotective activity against rat PC12 cells assessed as decrease in H2O2-induced intracellular Ca2+ level at 5 uM preincubated for 12 hrs followed by replacement with fresh media and H2O2 stimulation for 12 hrs by Fluo-3 AM based flow cytometry relative to control", "assay_type": "functional", "set-up": "scale not given: the % may be the effect or the level left"}, "Mus musculus [12]": {"system": "Mus musculus", "assay": "Antialzheimer activity in okadaic acid-induced cognitive impairment ICR mouse model assessed as increase in number of groups crossing virtual platform at 0.08 to 0.24 mg/kg, iv twice at 3days interval before and after okadaic acid stimulation measured upto 14 days by Morris water maze test relative to control", "assay_type": "functional, organism-based", "details": "dose 0.08-0.24 mg/kg, time <= 14.0 day"}, "PC-12 [13]": {"system": "PC-12", "assay": "Anti-apoptotic activity against H2O2-induced apoptosis in rat PC12 cells assessed as early apoptotic cells at 5 uM preincubated for 12 hrs followed by replacement with fresh media and H2O2 stimulation for 12 hrs by Annexin-V/7-AAD staining based flow cytometry (Rvb=0.8%)", "assay_type": "functional"}, "PC12 [14]": {"system": "PC12", "assay": "Activation of Nrf2-ARE pathway in rat PC-12 cells assessed as increase in TrxR1 expression level at 2.5 to 10 uM incubated for 6 hrs by Western blot analysis", "assay_type": "cell-based", "details": "filed as activator, dose 2.5-10 µM"}, "PC12 [15]": {"system": "PC12", "assay": "Activation of Nrf2-ARE pathway in rat PC-12 cells assessed as increase in Nrf2 expression level in nucleus at 10 uM incubated for 3 hrs by Western blot analysis", "assay_type": "cell-based", "details": "filed as activator"}, "PC-12 [16]": {"system": "PC-12", "assay": "Anti-apoptotic activity against H2O2-induced apoptosis in rat PC12 cells assessed as late apoptotic cells at 10 uM preincubated for 12 hrs followed by replacement with fresh media and H2O2 stimulation for 12 hrs by Annexin-V/7-AAD staining based flow cytometry (Rvb=2.2 %)", "assay_type": "functional"}, "PC-12 [17]": {"system": "PC-12", "assay": "Anti-apoptotic activity against H2O2-induced apoptosis in rat PC12 cells assessed as dead cells at 5 uM preincubated for 12 hrs followed by replacement with fresh media and H2O2 stimulation for 12 hrs by Annexin-V/7-AAD staining based flow cytometry (Rvb=4.1%)", "assay_type": "functional"}, "[18]": {"target": "T1, Glycogen synthase kinase-3 beta (Homo sapiens, UniProt P49841)", "assay": "Inhibition of human GSK-3beta overexpressed in human HEK293T cells assessed as decrease in Tau phosphorylation at s396 at 0.625 to 10 uM incubated for 24 hrs by Western blot analysis", "assay_type": "cell-based", "details": "dose 0.625-10 µM"}, "Mus musculus [19]": {"system": "Mus musculus", "assay": "Antialzheimer activity in okadaic acid-induced cognitive impairment ICR mouse model assessed as increase of search time in target quadrant at 0.08 to 0.24 mg/kg, iv twice at 3days interval before and after okadaic acid stimulation measured upto 14 days by Morris water maze test relative to control", "assay_type": "functional, organism-based", "details": "dose 0.08-0.24 mg/kg, time <= 14.0 day"}, "Mus musculus [20]": {"system": "Mus musculus", "assay": "Antialzheimer activity in okadaic acid-induced cognitive impairment ICR mouse model assessed as reduction in escape time at 0.08 to 0.24 mg/kg, iv twice at 3days interval before and after okadaic acid stimulation measured upto 14 days by Morris water maze test relative to control", "assay_type": "functional, organism-based", "details": "dose 0.08-0.24 mg/kg, time <= 14.0 day"}, "PC-12 [21]": {"system": "PC-12", "assay": "Neuroprotective activity against rat PC12 cells assessed as decrease in H2O2-induced intracellular Ca2+ level at 2.5 uM preincubated for 12 hrs followed by replacement with fresh media and H2O2 stimulation for 12 hrs by Fluo-3 AM based flow cytometry relative to control", "assay_type": "functional", "set-up": "scale not given: the % may be the effect or the level left"}, "PC-12 [22]": {"system": "PC-12", "assay": "Neuroprotective activity against H2O2-induced cytotoxicity in rat PC12 cells assessed as increase in cell viability at 10 uM preincubated for 12 hrs followed by replacement with fresh media and H2O2 stimulation for 12 hrs by MTT assay", "assay_type": "functional, cell-based"}, "[23]": {"target": "T1, Glycogen synthase kinase-3 beta", "assay": "Inhibition of recombinant human GSK-3beta using YRRAAVPPSPSLSRHSSPHQ(pS)EDEE as substrate preincubated for 15 mins followed by substrate addition and measured after 60 mins by Kinase-Glo luminescent kinase assay"}, "PC-12 [24]": {"system": "PC-12", "assay": "Cytotoxicity against rat PC12 cells assessed as cell viability at 6.25 to 100 uM incubated for 24 hrs by MTT assay", "assay_type": "toxicity, cell-based", "details": "pc-12, 24 h, dose 6.25-100 µM"}, "[25]": {"assay": "Toxicity in okadaic acid-induced cognitive impairment ICR mouse model assessed as body weight change at 0.08 to 0.24 mg/kg, iv twice at 3days interval before and after okadaic acid stimulation measured upto 14 days", "assay_type": "organism-based", "details": "in vivo, 336 h, dose 0.08-0.24 mg/kg, time < 14 day"}, "PC-12 [26]": {"system": "PC-12", "assay": "Anti-apoptotic activity against H2O2-induced apoptosis in rat PC12 cells assessed as dead cells at 10 uM preincubated for 12 hrs followed by replacement with fresh media and H2O2 stimulation for 12 hrs by Annexin-V/7-AAD staining based flow cytometry (Rvb=4.1%)", "assay_type": "functional"}}, "note": "Calls of active or inactive are those of the source. The rule behind the calls is not given here."}
{"molecule": "COc1ccc(-c2ocnc2C(=O)NCCCc2ccc(NC(=O)/C=C/c3cc(C(C)(C)C)c(O)c(C(C)(C)C)c3)cc2)cc1Cl", "values": [{"measurement": "Activity", "setting": "PC12 [1]", "result": "Active"}, {"measurement": "Activity", "setting": "Mus musculus [2]", "result": "Active"}, {"measurement": "Activity", "setting": "L02", "result": "Non-Toxic"}, {"measurement": "Activity", "setting": "PC-12 [3]", "result": 81.3, "unit": "%"}, {"measurement": "Activity", "setting": "PC-12 [4]", "result": 16.4, "unit": "%"}, {"measurement": "Activity", "setting": "PC-12 [5]", "result": 76.8, "unit": "%"}, {"measurement": "Activity", "setting": "PC12 [6]", "result": "Dose-Dependent Effect"}, {"measurement": "Activity", "setting": "PC-12 [7]", "result": 5.5, "unit": "%"}, {"measurement": "Activity", "setting": "[8]", "result": "Non-Toxic"}, {"measurement": "Activity", "setting": "PC-12 [9]", "result": 93.1, "unit": "%"}, {"measurement": "Activity", "setting": "PC-12 [10]", "result": "inactive"}, {"measurement": "Activity", "setting": "PC-12 [11]", "result": 28.4, "unit": "%"}, {"measurement": "Activity", "setting": "Mus musculus [12]", "result": "Active"}, {"measurement": "Activity", "setting": "PC-12 [13]", "result": 1.5, "unit": "%"}, {"measurement": "Activity", "setting": "PC12 [14]", "result": "Dose-Dependent Effect"}, {"measurement": "Activity", "setting": "PC12 [15]", "result": "Active"}, {"measurement": "Activity", "setting": "PC-12 [16]", "result": 6, "unit": "%"}, {"measurement": "Activity", "setting": "PC-12 [17]", "result": 2.5, "unit": "%"}, {"measurement": "inhibition", "setting": "[18]", "result": "Dose-Dependent Effect"}, {"measurement": "Activity", "setting": "Mus musculus [19]", "result": "Active"}, {"measurement": "Activity", "setting": "Mus musculus [20]", "result": "Dose-Dependent Effect"}, {"measurement": "Activity", "setting": "PC-12 [21]", "result": 24.5, "unit": "%"}, {"measurement": "Activity", "setting": "PC-12 [22]", "result": "Active"}, {"measurement": "IC50", "setting": "[23]", "result": 0.25, "unit": "nM"}, {"measurement": "Activity", "setting": "PC-12 [24]", "result": "Non-Toxic"}, {"measurement": "Activity", "setting": "[25]", "result": "Non-Toxic"}, {"measurement": "Activity", "setting": "PC-12 [26]", "result": 1.3, "unit": "%"}]}
